Data published in patent US20050009776A1, “Method of treating atrial fibrillation or atrial flutter” (Aderis Pharmaceuticals, Inc., priority 2003, published 2005).
Marks after values point to notes of the source that are not given here.

Columns and labels:
[1] = tested on: patients with atrial fibrillation; experiment: Example 4: placebo-controlled 15-minute i.v. infusion, heart rate and blood pressure in atrial fibrillation; format: in vivo, human
Experimental: A double blind, placebo-controlled study was designed to establish the i.v. dose range of DTI-0009 that safely reduces heart rates in patients with atrial fibrillation. […] The patients' heart rates and blood pressures were measured periodically throughout the treatment period and for 75 and 80 minutes post-infusion, respectively. Safety assessments were made throughout the study and for up to three to seven days post-dose.

[2] = Example 5: pharmacokinetics and renal function markers of short i.v. infusions in healthy subjects; format: in vivo, human
Experimental: A study was designed to determine the dose dependent pharmacokinetics (PK) of short i.v. infusions of DTI-0009 in healthy subjects. Ten healthy young volunteer (ages 21 to 35 years old) received a 30-minute infusion of 1 μg/kg DTI-0009, or 5 μg/kg DTI-0009 or saline on three different occasions. The subjects were hydrated by a saline infusion ([…]) for one hour prior to and five hours after the start of the drug infusion. Serial plasma and urine samples were taken over 24 hours to measure DTI-0009 concentrations (as well as glucuronide, in urine only), creatinine, sodium and potassium by validated methods. The following renal function markers were assessed over time: urinary flow rate (UF), creatinine clearance (CLCrea), sodium clearance (CLNa) and potassium clearance (CLK). Additionally, noncompartmental PK analysis was performed and instantaneous renal clearance (CLren^inst) was estimated as a function of UF and CLcrea.

## CCNC(=O)[C@H]1O[C@@H](n2cnc3c(NC4CCCC4)ncnc32)[C@H](O)[C@@H]1O [DTI-0009, N^6-cyclopentyl-5′-(N-ethyl)carboxamidoadenosine]
[1]; 2 μg/kg (11 patients), 30 minutes after start of infusion (BP 35 minutes, footnote c), Baseline 82.2
  DBP: 77.8^e mmHg
[1]; 2 μg/kg (11 patients), 30 minutes after start of infusion (BP 35 minutes, footnote c), Baseline 130.7
  SBP: 129.5^e mmHg
[1]; 2 μg/kg (n = 12), 5 minutes after start of infusion, Baseline 82.2
  DBP: 87.7 mmHg
[1]; 2 μg/kg (n = 12), 5 minutes after start of infusion, Baseline 129.9
  HR: 117.1^a bpm
[1]; 2 μg/kg (n = 12), 5 minutes after start of infusion, Baseline 130.7
  SBP: 136.6 mmHg
[1]; 2 μg/kg (n = 12), 15 minutes after start of infusion, Baseline 82.2
  DBP: 84.6 mmHg
[1]; 2 μg/kg (n = 12), 15 minutes after start of infusion, Baseline 129.9
  HR: 102.4^b bpm
[1]; 2 μg/kg (n = 12), 15 minutes after start of infusion, Baseline 130.7
  SBP: 134.4 mmHg
[1]; 2 μg/kg (n = 12), 30 minutes after start of infusion, Baseline 129.9
  HR: 112.1^a bpm
[1]; 4 μg/kg (8 patients), 30 minutes after start of infusion, Baseline 143.9
  HR: 115.1^a,d bpm
[1]; 4 μg/kg (n = 9), 5 minutes after start of infusion, Baseline 75.0
  DBP: 76.3 mmHg
[1]; 4 μg/kg (n = 9), 5 minutes after start of infusion, Baseline 132.1
  SBP: 127.4 mmHg
[1]; 4 μg/kg (n = 9), 5 minutes after start of infusion, Baseline 143.9
  HR: 114.9^a bpm
[1]; 4 μg/kg (n = 9), 15 minutes after start of infusion, Baseline 75.0
  DBP: 68.7 mmHg
[1]; 4 μg/kg (n = 9), 15 minutes after start of infusion, Baseline 132.1
  SBP: 132.8 mmHg
[1]; 4 μg/kg (n = 9), 15 minutes after start of infusion, Baseline 143.9
  HR: 100.1^b bpm
[1]; 4 μg/kg (n = 9), 30 minutes after start of infusion (BP 35 minutes, footnote c), Baseline 75.0
  DBP: 72.2 mmHg
[1]; 4 μg/kg (n = 9), 30 minutes after start of infusion (BP 35 minutes, footnote c), Baseline 132.1
  SBP: 122.0 mmHg
[1]; 6 μg/kg (n = 9), 5 minutes after start of infusion, Baseline 69.4
  DBP: 72.9 mmHg
[1]; 6 μg/kg (n = 9), 5 minutes after start of infusion, Baseline 122.1
  SBP: 126.8 mmHg
[1]; 6 μg/kg (n = 9), 5 minutes after start of infusion, Baseline 140.2
  HR: 117.1^a bpm
[1]; 6 μg/kg (n = 9), 15 minutes after start of infusion, Baseline 69.4
  DBP: 70.4 mmHg
[1]; 6 μg/kg (n = 9), 15 minutes after start of infusion, Baseline 122.1
  SBP: 126.8 mmHg
[1]; 6 μg/kg (n = 9), 15 minutes after start of infusion, Baseline 140.2
  HR: 100.4^b bpm
[1]; 6 μg/kg (n = 9), 30 minutes after start of infusion (BP 35 minutes, footnote c), Baseline 69.4
  DBP: 68.7 mmHg
[1]; 6 μg/kg (n = 9), 30 minutes after start of infusion (BP 35 minutes, footnote c), Baseline 122.1
  SBP: 115.4 mmHg
[1]; 6 μg/kg (n = 9), 30 minutes after start of infusion, Baseline 140.2
  HR: 114.4^a bpm
[1]; 8 μg/kg (n = 7), 5 minutes after start of infusion, Baseline 82.3
  DBP: 85.1 mmHg
[1]; 8 μg/kg (n = 7), 5 minutes after start of infusion, Baseline 131.6
  SBP: 141.4 mmHg
[1]; 8 μg/kg (n = 7), 5 minutes after start of infusion, Baseline 133.7
  HR: 101.4^a bpm
[1]; 8 μg/kg (n = 7), 15 minutes after start of infusion, Baseline 82.3
  DBP: 80.3 mmHg
[1]; 8 μg/kg (n = 7), 15 minutes after start of infusion, Baseline 131.6
  SBP: 145.3 mmHg
[1]; 8 μg/kg (n = 7), 15 minutes after start of infusion, Baseline 133.7
  HR: 90.9^a bpm
[1]; 8 μg/kg (n = 7), 30 minutes after start of infusion (BP 35 minutes, footnote c), Baseline 82.3
  DBP: 77.4 mmHg
[1]; 8 μg/kg (n = 7), 30 minutes after start of infusion (BP 35 minutes, footnote c), Baseline 131.6
  SBP: 134.4 mmHg
[1]; 8 μg/kg (n = 7), 30 minutes after start of infusion, Baseline 133.7
  HR: 96.3^a bpm
[1]; 10 μg/kg (n = 8), 5 minutes after start of infusion, Baseline 75.9
  DBP: 83.1 mmHg
[1]; 10 μg/kg (n = 8), 5 minutes after start of infusion, Baseline 128.3
  SBP: 140.6 mmHg
[1]; 10 μg/kg (n = 8), 5 minutes after start of infusion, Baseline 142.5
  HR: 110.0^b bpm
[1]; 10 μg/kg (n = 8), 15 minutes after start of infusion, Baseline 75.9
  DBP: 73.0 mmHg
[1]; 10 μg/kg (n = 8), 15 minutes after start of infusion, Baseline 128.3
  SBP: 125.8 mmHg
[1]; 10 μg/kg (n = 8), 15 minutes after start of infusion, Baseline 142.5
  HR: 95.4^a bpm
[1]; 10 μg/kg (n = 8), 30 minutes after start of infusion (BP 35 minutes, footnote c), Baseline 75.9
  DBP: 71.3 mmHg
[1]; 10 μg/kg (n = 8), 30 minutes after start of infusion (BP 35 minutes, footnote c), Baseline 128.3
  SBP: 126.1 mmHg
[1]; 10 μg/kg (n = 8), 30 minutes after start of infusion, Baseline 142.5
  HR: 104.6^a bpm
[1]; 12 μg/kg (n = 4), 5 minutes after start of infusion, Baseline 80.5
  DBP: 82.5 mmHg
[1]; 12 μg/kg (n = 4), 5 minutes after start of infusion, Baseline 119.5
  SBP: 131.5 mmHg
[1]; 12 μg/kg (n = 4), 5 minutes after start of infusion, Baseline 120.0
  HR: 82.0^a bpm
[1]; 12 μg/kg (n = 4), 15 minutes after start of infusion, Baseline 80.5
  DBP: 78.5 mmHg
[1]; 12 μg/kg (n = 4), 15 minutes after start of infusion, Baseline 119.5
  SBP: 122.5 mmHg
[1]; 12 μg/kg (n = 4), 15 minutes after start of infusion, Baseline 120.0
  HR: 74.5^a bpm
[1]; 12 μg/kg (n = 4), 30 minutes after start of infusion (BP 35 minutes, footnote c), Baseline 80.5
  DBP: 68.5^a mmHg
[1]; 12 μg/kg (n = 4), 30 minutes after start of infusion (BP 35 minutes, footnote c), Baseline 119.5
  SBP: 118.5 mmHg
[1]; 12 μg/kg (n = 4), 30 minutes after start of infusion, Baseline 120.0
  HR: 88.0^a bpm
[1]; any treatment group, infusion period and up to 80 minutes post-infusion
  changes in systolic or diastolic blood pressures: no clinically significant changes
[2]
  Vdss: approached body weight
  duration of inhibitory effects on CLCrea: 1 to 2 h
  duration of inhibitory effects on CLNa: 3 to 4 h
  time at which dose-dependent secondary effects (rebounds) in UF and natriuresis were apparent: 5 to 10 h
[2]; 1 μg/kg vs 5 μg/kg
  CLnonren with increasing dose: appeared unchanged
  CLren reduced with increasing dose: 29%
  CLtot reduced with increasing dose: 25%
[2]; 30-minute i.v. infusion of 1 or 5 μg/kg
  eliminated unchanged in urine: About 42%
[2]; initially, dose-dependent inhibition of CLcrea, CLNa and to a lesser extent CLK
  effect on diuresis, natriuresis and kaliuresis: transiently reduced diuresis, natriuresis and kaliuresis
